Results reported in patent publication US20220144848A1, “SUBSTITUTED OXOPYRIDINE DERIVATIVES” (Bayer Aktiengesellschaft, priority 2018, published 2022).

Tests used:
[1] = molecular target: T1, human factor XIa (Homo sapiens, UniProt P03951); experiment: Measurement of FXIa inhibition (fluorogenic peptide substrate Boc-Glu(OBzl)-Ala-Arg-AMC); format: biochemical; conditions: factor XIa from Kordia, 15 min preincubation, 30 min at 22° C., fluorescence; some as mean values from multiple determinations
T1 construct: purchased Kordia
T1 sequence (P03951 388-625 limits assumed): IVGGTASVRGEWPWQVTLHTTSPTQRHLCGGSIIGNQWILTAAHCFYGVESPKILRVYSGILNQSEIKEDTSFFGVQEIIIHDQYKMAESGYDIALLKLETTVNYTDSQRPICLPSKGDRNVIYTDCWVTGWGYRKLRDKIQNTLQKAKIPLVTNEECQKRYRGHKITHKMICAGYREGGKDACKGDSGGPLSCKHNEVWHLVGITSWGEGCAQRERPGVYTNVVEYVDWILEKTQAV
T1 sequence (P03951 19-387 partner limits assumed): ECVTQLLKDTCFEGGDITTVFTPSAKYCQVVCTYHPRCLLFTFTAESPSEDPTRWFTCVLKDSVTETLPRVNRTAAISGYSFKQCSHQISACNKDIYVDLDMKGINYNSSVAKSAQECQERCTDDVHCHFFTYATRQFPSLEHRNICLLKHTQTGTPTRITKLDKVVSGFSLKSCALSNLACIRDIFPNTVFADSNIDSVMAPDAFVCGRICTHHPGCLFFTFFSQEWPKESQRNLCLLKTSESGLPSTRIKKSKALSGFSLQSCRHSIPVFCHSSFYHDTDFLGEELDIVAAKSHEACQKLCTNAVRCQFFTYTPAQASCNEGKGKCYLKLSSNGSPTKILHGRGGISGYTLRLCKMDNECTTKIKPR

[2] = molecular target: T2, human plasma kallikrein (Homo sapiens, UniProt P03952); experiment: Determination of the plasma kallikrein activity (fluorogenic peptide substrate H-Pro-Phe-Arg-AMC); format: biochemical; conditions: plasma kallikrein from Kordia, 15 min preincubation, 30 min at 22° C., fluorescence; some as mean values from multiple determinations
T2 construct: purchased Kordia
T2 sequence (P03952 391-638 limits assumed): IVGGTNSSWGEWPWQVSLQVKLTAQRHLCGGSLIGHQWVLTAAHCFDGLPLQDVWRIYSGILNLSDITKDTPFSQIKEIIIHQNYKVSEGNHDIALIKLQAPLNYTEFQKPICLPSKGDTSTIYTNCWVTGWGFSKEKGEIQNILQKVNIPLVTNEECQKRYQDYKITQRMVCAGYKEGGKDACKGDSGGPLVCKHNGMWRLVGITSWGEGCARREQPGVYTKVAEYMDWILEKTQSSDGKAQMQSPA
T2 sequence (P03952 20-390 partner limits assumed): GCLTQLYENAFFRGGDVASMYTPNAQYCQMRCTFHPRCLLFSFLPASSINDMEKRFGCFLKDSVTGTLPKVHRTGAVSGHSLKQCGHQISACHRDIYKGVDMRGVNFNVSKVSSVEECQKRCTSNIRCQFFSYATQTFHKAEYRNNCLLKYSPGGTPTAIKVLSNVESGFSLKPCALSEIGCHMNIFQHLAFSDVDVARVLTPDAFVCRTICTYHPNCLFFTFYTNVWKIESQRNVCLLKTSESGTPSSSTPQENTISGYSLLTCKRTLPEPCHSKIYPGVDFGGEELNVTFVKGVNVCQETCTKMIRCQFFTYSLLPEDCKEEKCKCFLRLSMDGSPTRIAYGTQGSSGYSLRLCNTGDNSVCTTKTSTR

| IC50 [1] | IC50 [2] | SMILES |
| --- | --- | --- |
| 6.5 nM | 790 nM | NC(=O)c1ccc(NC(=O)C(C[C@@H]2CCCCO2)n2cc3c(cc2=O)-c2cc(Cl)ccc2CC(C(F)(F)F)OC3)cn1 (mixture of isomers) [Example 52, 5-({2-[11-Chloro-2-oxo-7-(trifluoromethyl)-7,8-dihydro-2H-[3]benzoxocino[5,6-c]pyridin-3(5H)-yl]-3-[(2S)-tetrahydro-2H-pyran-2-yl]propanoyl}amino)pyridine-2-carboxamide] |
| 10 nM | 1600 nM | CC(C)[C@@H]1Cc2ccc(Cl)cc2-c2cc(=O)n([C@@H](C[C@@H]3COCCO3)C(=O)Nc3ccc(C(N)=O)c(F)c3)cc2CO1 (single isomer, unassigned) [Example 41] |
| 64 nM | 580 nM | CC[C@@H](C(=O)Nc1ccc(C(N)=O)cc1)n1cc2c(cc1=O)-c1c(ccc(Cl)c1Cl)C[C@@H](C(F)(F)F)OC2 (single isomer, unassigned) [Example 70] |
| 2.3 nM | 300 nM | NC(=O)c1ccc(NC(=O)[C@H](C[C@@H]2CCCCO2)n2cc3c(cc2=O)-c2cc(Cl)ccc2C[C@@H](C(F)(F)F)OC3)cn1 (single isomer, unassigned) [Example 53] |
| 6 nM | 320 nM | NC(=O)c1ccc(NC(=O)[C@H](C[C@@H]2COCCO2)n2cc3c(cc2=O)-c2cc(Cl)ccc2C[C@@H](CO)OC3)cc1 (single isomer, unassigned) [Example 37] |
| 3.3 nM | 42 nM | C[C@@H]1Cc2ccc(Cl)cc2-c2cc(=O)n([C@@H](C[C@@H]3COCCO3)C(=O)Nc3ccc4nn(C)nc4c3)cc2CO1 (single isomer, unassigned) [Example 12] |
| 9.5 nM | 280 nM | CO[C@@H](C)C[C@@H](C(=O)Nc1ccc(C(N)=O)cc1)n1cc2c(cc1=O)-c1c(ccc(Cl)c1Cl)C[C@@H](C(F)(F)F)OC2 (single isomer, unassigned) [Example 80] |
| 4.7 nM | 370 nM | NC(=O)c1ccc(NC(=O)[C@H](C[C@@H]2CCCCO2)n2cc3c(cc2=O)-c2cc(Cl)ccc2C[C@@H](C(F)F)OC3)cc1F (single isomer, unassigned) [Example 49] |
| 3.7 nM | 140 nM | C[C@@H]1Cc2ccc(Cl)cc2-c2cc(=O)n(C(C[C@H](C)OC(F)F)C(=O)Nc3ccc(C(N)=O)cc3)cc2CO1 (mixture of isomers) [Example 18, 4-{[(4S)-2-[(7R)-11-Chloro-7-methyl-2-oxo-7,8-dihydro-2H-[3]benzoxocino[5,6-c]pyridin-3(5H)-yl]-4-(difluoromethoxy)pentanoyl]amino}benzamide] |
| 1.2 nM | 87 nM | C[C@@H]1Cc2ccc(Cl)cc2-c2cc(=O)n([C@@H](C[C@@H]3COCCO3)C(=O)Nc3ccc(C(N)=O)cc3)cc2CO1 (single isomer, unassigned) [Example 10] |
| 1.4 nM | 140 nM | C[C@@H]1Cc2ccc(Cl)cc2-c2cc(=O)n([C@@H](C[C@@H]3CCCCO3)C(=O)Nc3ccc(C(N)=O)cc3)cc2CO1 (single isomer, unassigned) [Example 6] |
| 6 nM | 510 nM | CC1Cc2ccc(Cl)cc2-c2cc(=O)n(C(C[C@@H]3CCCCO3)C(=O)Nc3ccc(C(N)=O)nc3)cc2CO1 (mixture of isomers) [Example 3, 5-{2-(11-Chloro-7-methyl-2-oxo-7,8-dihydro-2H-[3]benzoxocino[5,6-c]pyridin-3(5H)-yl)-3-[(2S)-tetrahydro-2H-pyran-2-yl]propanamido}pyridine-2-carboxamide] |
| 42 nM | 580 nM | COCCC(C(=O)Nc1ccn2ncnc2c1)n1cc2c(cc1=O)-c1cc(Cl)ccc1CC(C(F)(F)F)OC2 (mixture of isomers) [Example 64, 2-[11-Chloro-2-oxo-7-(trifluoromethyl)-7,8-dihydro-2H-[3]benzoxocino[5,6-c]pyridin-3(5H)-yl]-4-methoxy-N-([1,2,4]triazolo[1,5-a]pyridin-7-yl)butanamide] |
| 2.1 nM | 170 nM | NC(=O)c1ccc(NC(=O)[C@H](C[C@@H]2CCCCO2)n2cc3c(cc2=O)-c2cc(Cl)ccc2C[C@@H](CO)OC3)cc1 (single isomer, unassigned) [Example 35] |
